Laboratory results taken from patent publication US20260137703A1, “2-AMINO-PYRIDO[2,3-D]PYRIMIDIN-7(8H)-ONE AND 7-AMINO-1-PYRIMIDO[4,5-D]PYRIMIDIN-2(1 H)-ONE DERIVATIVES AS EGFR INHIBITORS FOR THE TREATMENT OF CANCER” (Cancer Research Technology Limited, priority 2022, published 2026).

Key:
[1] = target: CtermHisTag-mEGFR Wild type (Homo sapiens, UniProt P00533); test: biochemical
[2] = target: T1, Phospho-EGFR (Tyr1068) in H1975 cells (Homo sapiens, UniProt P00533, L858R/T790M); test: HTRF pEGFR/total EGFR in H1975 cells; type: cell-based; details: ratio pEGFR/total EGFR, compound 3 hours
T1 construct: host or cells: H1975
Description: (§1) H1975 cells (ATCC CRL-5908) were plated at 20,000 cells per well in 96 well plates and placed at 37° C. 5% CO2. Once adhered (after 24 h) cells were treated with compounds dissolved in DMSO at a final concentration of 0.1% DMSO in media. Compounds were diluted in media then added to cells for 3 hours in duplicate. Compound and media were removed from the cells, then 50 ul of HTRF lysis buffer is added (lysis buffer was diluted from 4× stock to 1× in DI water, with 1% blocking agent also added). Cells were lysed on a plate shaker (2000 rpm) for 30 minutes at room temperature. pEGFR expression was monitored using the Cisbio Phospho-EGFR (Tyri068) cellular kit (64EG1PEH). Total EGFR expression was monitored using the Cisbio Total EGFR cellular kit (64NG1PEH) as per manufacturer's instructions. Fluorescence emission was read at two different wavelengths (665 nm and 620 nm) on a PheraStar. Results were calculated as ratio of pEGFR/total EGFR and then percentage of 0 μM control.

[3] = target: T2, Phospho-EGFR (Tyr1068) in H1975 C797S cells (CRISPR-edited EGFR C797S) (Homo sapiens, UniProt P00533, C797S/L858R/T790M); test: HTRF pEGFR/total EGFR in H1975 C797S cells; type: cell-based; details: ratio pEGFR/total EGFR, compound 3 hours
T2 construct: host or cells: H1975 C797S (CRISPR-edited)
Description: as §1, with “[…]. Once” for “H1975 cells (ATCC CRL-5908) were plated at 20,000 cells per well in 96 well plates and placed at 37° C. 5% CO2. Once”, “buffer was” for “buffer is”, “Phospho-EGFR (Tyr1068)” for “Phospho-EGFR (Tyri068)”

Sequence of CtermHisTag-mEGFR Wild type (P00533 whole entry): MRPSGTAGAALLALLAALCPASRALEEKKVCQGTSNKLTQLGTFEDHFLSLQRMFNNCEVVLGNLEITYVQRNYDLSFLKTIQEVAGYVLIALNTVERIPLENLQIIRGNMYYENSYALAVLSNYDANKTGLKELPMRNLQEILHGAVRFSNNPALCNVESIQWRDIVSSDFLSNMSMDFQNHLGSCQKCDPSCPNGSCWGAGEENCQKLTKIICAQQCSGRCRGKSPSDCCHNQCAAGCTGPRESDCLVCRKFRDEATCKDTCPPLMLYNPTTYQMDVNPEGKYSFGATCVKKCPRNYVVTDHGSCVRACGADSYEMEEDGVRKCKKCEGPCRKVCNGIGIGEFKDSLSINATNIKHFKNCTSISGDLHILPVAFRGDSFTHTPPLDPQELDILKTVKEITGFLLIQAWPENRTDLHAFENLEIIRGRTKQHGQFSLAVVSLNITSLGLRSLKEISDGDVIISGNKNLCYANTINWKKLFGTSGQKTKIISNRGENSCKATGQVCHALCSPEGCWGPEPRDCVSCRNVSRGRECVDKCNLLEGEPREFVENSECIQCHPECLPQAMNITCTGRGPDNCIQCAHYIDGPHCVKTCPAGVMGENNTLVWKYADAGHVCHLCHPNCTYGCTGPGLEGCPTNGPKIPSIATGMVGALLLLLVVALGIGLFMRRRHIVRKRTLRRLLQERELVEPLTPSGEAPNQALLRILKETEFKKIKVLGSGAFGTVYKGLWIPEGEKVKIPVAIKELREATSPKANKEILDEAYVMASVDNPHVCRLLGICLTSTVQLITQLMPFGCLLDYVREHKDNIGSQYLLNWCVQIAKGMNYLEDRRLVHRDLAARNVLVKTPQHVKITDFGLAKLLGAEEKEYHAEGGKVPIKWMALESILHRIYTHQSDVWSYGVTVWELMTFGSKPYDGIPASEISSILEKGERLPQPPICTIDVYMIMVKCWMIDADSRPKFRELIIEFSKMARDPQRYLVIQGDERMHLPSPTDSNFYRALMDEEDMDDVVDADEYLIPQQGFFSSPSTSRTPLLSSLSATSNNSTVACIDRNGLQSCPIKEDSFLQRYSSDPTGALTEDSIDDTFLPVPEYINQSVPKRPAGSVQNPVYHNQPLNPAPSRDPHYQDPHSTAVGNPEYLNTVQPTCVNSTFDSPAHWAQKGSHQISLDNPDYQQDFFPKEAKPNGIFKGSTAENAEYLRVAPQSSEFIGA
T1 sequence (P00533 25-1210 T790M/L858R): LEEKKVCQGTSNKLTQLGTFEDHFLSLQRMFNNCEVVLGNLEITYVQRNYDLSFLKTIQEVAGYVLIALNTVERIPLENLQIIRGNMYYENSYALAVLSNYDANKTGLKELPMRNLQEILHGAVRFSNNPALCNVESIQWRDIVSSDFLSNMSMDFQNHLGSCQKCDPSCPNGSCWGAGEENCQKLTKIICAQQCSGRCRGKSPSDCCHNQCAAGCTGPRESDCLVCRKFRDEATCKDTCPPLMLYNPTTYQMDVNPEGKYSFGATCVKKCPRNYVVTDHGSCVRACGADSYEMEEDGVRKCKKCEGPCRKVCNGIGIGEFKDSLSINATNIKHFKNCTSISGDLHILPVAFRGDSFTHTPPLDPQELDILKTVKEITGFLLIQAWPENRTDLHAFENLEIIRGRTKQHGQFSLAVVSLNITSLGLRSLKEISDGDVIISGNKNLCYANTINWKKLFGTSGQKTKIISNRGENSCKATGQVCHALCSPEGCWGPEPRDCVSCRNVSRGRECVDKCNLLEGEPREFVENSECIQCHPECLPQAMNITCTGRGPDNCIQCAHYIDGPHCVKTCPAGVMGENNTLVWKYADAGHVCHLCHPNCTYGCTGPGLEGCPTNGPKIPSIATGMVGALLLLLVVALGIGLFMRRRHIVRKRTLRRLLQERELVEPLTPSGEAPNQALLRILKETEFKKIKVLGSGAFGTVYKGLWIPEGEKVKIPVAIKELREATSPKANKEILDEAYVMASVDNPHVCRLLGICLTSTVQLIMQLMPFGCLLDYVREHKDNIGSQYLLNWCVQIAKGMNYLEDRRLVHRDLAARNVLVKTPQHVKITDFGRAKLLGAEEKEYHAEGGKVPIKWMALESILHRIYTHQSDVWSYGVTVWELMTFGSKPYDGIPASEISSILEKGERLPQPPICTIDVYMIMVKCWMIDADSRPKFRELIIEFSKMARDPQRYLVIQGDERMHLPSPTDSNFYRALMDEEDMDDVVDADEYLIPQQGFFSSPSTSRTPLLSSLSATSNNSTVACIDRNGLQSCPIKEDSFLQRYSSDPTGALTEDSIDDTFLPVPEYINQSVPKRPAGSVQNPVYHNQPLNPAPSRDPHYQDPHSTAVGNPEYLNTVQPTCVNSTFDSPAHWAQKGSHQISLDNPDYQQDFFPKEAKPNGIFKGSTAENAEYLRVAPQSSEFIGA
T2 sequence (P00533 25-1210 T790M/C797S/L858R): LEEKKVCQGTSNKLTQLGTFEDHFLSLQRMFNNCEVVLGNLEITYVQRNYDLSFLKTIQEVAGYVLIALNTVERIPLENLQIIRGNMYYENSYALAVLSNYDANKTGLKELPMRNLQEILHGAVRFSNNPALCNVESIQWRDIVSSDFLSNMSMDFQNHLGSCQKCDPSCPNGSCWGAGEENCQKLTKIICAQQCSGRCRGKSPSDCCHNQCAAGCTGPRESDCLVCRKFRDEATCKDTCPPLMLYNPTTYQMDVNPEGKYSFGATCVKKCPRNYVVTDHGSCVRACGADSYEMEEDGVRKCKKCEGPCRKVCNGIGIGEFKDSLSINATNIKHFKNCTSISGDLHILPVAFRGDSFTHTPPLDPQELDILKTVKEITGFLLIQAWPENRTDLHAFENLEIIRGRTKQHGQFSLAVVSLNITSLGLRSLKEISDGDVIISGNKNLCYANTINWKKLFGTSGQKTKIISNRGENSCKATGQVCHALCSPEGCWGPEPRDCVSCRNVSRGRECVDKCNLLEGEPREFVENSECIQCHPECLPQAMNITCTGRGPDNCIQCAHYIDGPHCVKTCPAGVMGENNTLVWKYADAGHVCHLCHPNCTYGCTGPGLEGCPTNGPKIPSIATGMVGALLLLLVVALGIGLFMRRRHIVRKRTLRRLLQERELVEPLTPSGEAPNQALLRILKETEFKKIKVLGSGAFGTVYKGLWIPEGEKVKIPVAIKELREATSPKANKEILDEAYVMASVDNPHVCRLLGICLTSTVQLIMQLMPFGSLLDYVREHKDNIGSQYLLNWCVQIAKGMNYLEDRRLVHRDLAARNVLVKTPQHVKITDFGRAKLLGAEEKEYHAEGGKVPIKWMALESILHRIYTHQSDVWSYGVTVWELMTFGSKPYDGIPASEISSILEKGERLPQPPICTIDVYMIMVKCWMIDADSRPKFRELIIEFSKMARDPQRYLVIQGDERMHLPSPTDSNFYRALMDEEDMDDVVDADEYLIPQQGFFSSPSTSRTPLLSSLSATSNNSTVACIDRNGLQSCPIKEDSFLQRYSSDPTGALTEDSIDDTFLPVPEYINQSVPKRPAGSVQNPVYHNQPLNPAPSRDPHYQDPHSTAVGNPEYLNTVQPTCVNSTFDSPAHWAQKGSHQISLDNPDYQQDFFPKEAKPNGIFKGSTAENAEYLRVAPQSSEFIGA

| Compound | IC50 [1] [µM] | IC50 [2] [µM] | IC50 [3] [µM] |
| --- | --- | --- | --- |
| C#Cc1c(C#N)c(=O)n(-c2ccccc2)c2nc(Nc3ccccc3OC)ncc12 [Example 145, 5-ethynyl-2-[(2-methoxyphenyl)amino]-7-oxo-8-phenylpyrido[2,3-d]pyrimidine-6-carbonitrile] | > 10 | – | – |
| C#Cc1c(C(=O)N(C)C)c(=O)n(-c2ccccc2)c2nc(Nc3ccccc3OC)ncc12 [Example 146, 5-ethynyl-2-[(2-methoxyphenyl)amino]-N,N-dimethyl-7-oxo-8-phenylpyrido[2,3-d]pyrimidine-6-carboxamide] | > 10 | – | – |
| C#Cc1c(N(C)C)c(=O)n(-c2ccccc2)c2nc(Nc3ccccc3OC)ncc12 [Example 147, 6-(dimethylamino)-5-ethynyl-2-[(2-methoxyphenyl)amino]-8-phenylpyrido[2,3-d]pyrimidin-7-one] | > 10 | – | – |
| C=Cc1cc(=O)n(-c2ccccc2)c2nc(Nc3ccccc3OC)ncc12 [Example 152, 5-ethenyl-2-[(2-methoxyphenyl)amino]-8-phenylpyrido[2,3-d]pyrimidin-7-one] | > 10 | – | – |
| C=Cc1cc(=O)n(-c2ccccc2OC)c2nc(Nc3ccccc3OC)ncc12 [Example 153, 8-(2-Methoxyphenyl)-2-((2-methoxyphenyl)amino)-5-vinylpyrido[2,3-d]pyrimidin-7(8H)-one] | > 10 | – | – |
| C=Cc1cc(=O)n(-c2ccc(OC)cc2OC)c2nc(Nc3ccccc3OC)ncc12 [Example 154, 8-(2,4-dimethoxyphenyl)-5-ethenyl-2-[(2-methoxyphenyl)amino]pyrido[2,3-d]pyrimidin-7-one] | > 10 | – | – |
| C=Cc1c(C#N)c(=O)n(-c2ccccc2)c2nc(Nc3ccccc3OC)ncc12 [Example 159, 5-ethenyl-2-[(2-methoxyphenyl)amino]-7-oxo-8-phenylpyrido[2,3-d]pyrimidine-6-carbonitrile] | 1 to 10 | – | – |
| C=Cc1c(C#N)c(=O)n(-c2ccc(OC)cc2OC)c2nc(Nc3ccccc3OC)ncc12 [Example 160, 8-(2,4-dimethoxyphenyl)-2-((2-methoxyphenyl)amino)-7-oxo-5-vinyl-7,8-dihydropyrido[2,3-d]pyrimidine-6-carbonitrile] | 1 to 10 | – | – |
| C=Cc1c(-c2ccccc2Cl)c(=O)n(C)c2nc(Nc3ccccc3OC)ncc12 [Example 161, 6-(2-chlorophenyl)-5-ethenyl-2-[(2-methoxyphenyl)amino]-8-methylpyrido[2,3-d]pyrimidin-7-one] | > 10 | – | – |
| C=Cc1c(-c2ccccc2)c(=O)n(C)c2nc(Nc3ccccc3OC)ncc12 [Example 162, 5-ethenyl-2-[(2-methoxyphenyl)amino]-8-methyl-6-phenylpyrido[2,3-d]pyrimidin-7-one] | > 10 | – | – |
| C=Cc1c(-c2c(Cl)cccc2Cl)c(=O)n(C)c2nc(Nc3ccccc3OC)ncc12 [Example 163, 6-(2,6-dichlorophenyl)-5-ethenyl-2-[(2-methoxyphenyl)amino]-8-methylpyrido[2,3-]pyrimidin-7-one] | > 10 | – | – |

Next, values leading:

| IC50 [1] [µM] | IC50 [2] [µM] | IC50 [3] [µM] | Compound |
| --- | --- | --- | --- |
| > 10 | – | – | C=Cc1c(-c2c(Cl)cccc2Cl)c(=O)n(C)c2nc(Nc3cccc(CO)c3)ncc12 [Example 164, 6-(2,6-dichlorophenyl)-5-ethenyl-2-{[3-(hydroxymethyl)phenyl]amino}-8-methylpyrido[2,3-d]pyrimidin-7-one] |
| > 10 | – | – | C=Cc1c(-c2ccccc2Cl)c(=O)n(C)c2nc(Nc3ccc(N(C)CCN(C)C)cc3)ncc12 [Example 165, 6-(2-chlorophenyl)-2-[(4-{[2-(dimethylamino)ethyl](methyl)amino}phenyl)amino]-5-ethenyl-8-methylpyrido[2,3-d]pyrimidin-7-one] |
| > 10 | – | – | C=Cc1c(Cc2ccccc2)c(=O)n(C)c2nc(Nc3ccc(N(C)CCN(C)C)cc3)ncc12 [Example 166, 6-benzyl-2-[(4-{[2-(dimethylamino)ethyl](methyl)amino}phenyl)amino]-5-ethenyl-8-methylpyrido[2,3-d]pyrimidin-7-one] |
| > 10 | – | – | C=Cc1c(-c2c(Cl)cccc2Cl)c(=O)n(C)c2nc(Nc3ccc(N(C)CCN(C)C)cc3)ncc12 [Example 167, 6-(2,6-dichlorophenyl)-2-[(4-{[2-(dimethylamino)ethyl](methyl)amino}phenyl)amino]-5-ethenyl-8-methylpyrido[2,3-d]pyrimidin-7-one] |
| > 10 | – | – | C=Cc1c(-c2ccccc2Cl)c(=O)n(C)c2nc(Nc3cccc(OC)c3)ncc12 [Example 168, 6-(2-chlorophenyl)-5-ethenyl-2-[(3-methoxyphenyl)amino]-8-methylpyrido[2,3-d]pyrimidin-7-one] |
| 1 to 10 | – | – | C=Cc1c(-c2ccccc2Cl)c(=O)n(C)c2nc(Nc3cccc(CO)c3)ncc12 [Example 169, 6-(2-chlorophenyl)-5-ethenyl-2-{[3-(hydroxymethyl)phenyl]amino}-8-methylpyrido[2,3-]pyrimidin-7-one] |
| > 10 | – | – | C=Cc1c(-c2ccccc2Cl)c(=O)n(C)c2nc(N)ncc12 [Example 173, 2-amino-6-(2-chlorophenyl)-5-ethenyl-8-methylpyrido[2,3-d]pyrimidin-7-one] |
| > 10 | – | – | C=Cc1c(-c2ccccc2Cl)c(=O)n(C)c2nc(NCCCCN3CCN(C)CC3)ncc12 [Example 174, 6-(2-chlorophenyl)-8-methyl-2-((4-(4-methylpiperazin-1-yl)butyl)amino)-5-vinylpyrido[2,3-d]pyrimidin-7(8H)-one] |
| > 10 | > 3 | > 3 | C#Cc1cc(=O)n(C2CCCC2)c2nc(Nc3ccccc3N3CCCC(CS(C)(=O)=O)C3)ncc12 (stereo not shown) [Example 202, 8-Cyclopentyl-5-ethynyl-2-({2-[3-(methanesulfonylmethyl)piperidin-1-yl]phenyl}amino)pyrido[2,3-d]pyrimidin-7-one] |
| < 1 | > 3 | > 3 | C#Cc1cc(=O)n(C2CCCC2)c2nc(Nc3cccc(N(C)[C@H]4CC[C@@H](CS(C)(=O)=O)CC4)c3)ncc12 [Example 204] |
| < 1 | < 0.5 | < 0.5 | C#Cc1cc(=O)n2c3nc(ncc13)Nc1ccc(N3CCN(C)CC3)c(c1)OC[C@@H]1CC[C@@H](C1)C2 [Example 233, (5^1S,5^3R)-3^5-Ethynyl-1^4-(4-methylpiperazin-1-yl)-3^7,3^8-dihydro-7-oxa-2-aza-3(2,8)-pyrido[2,3-d]pyrimidina-1(1,3)-benzena-5(1,3)-cyclopentanacycloheptaphan-3^7-one] |
